Results as given in patent US9580416B2, “Inhibitors of Bruton's tyrosine kinase” (PHARMACYCLICS LLC, priority 2014, dated 2017).

target: Btk (Homo sapiens, UniProt Q06187); assay: Btk kinase activity, TR-FRET assay; type: biochemical; details: read-out: Btk (IC50)
Experimental: Btk kinase activity is determined using a time-resolved fluorescence resonance energy transfer (TR-FRET) methodology. Measurements are performed in a reaction volume of 50 μL using 96-well assay plates. Kinase enzyme, inhibitor, ATP (at the Km for the kinase), and 1 […] (Biotin-AVLESEEELYSSARQ-NH2) are incubated in a reaction buffer composed of 20 mM Tris, 50 mM NaCl, MgCl2 (5-25 mM depending on the kinase), MnCl2 (0-10 mM), 1 mM DTT, 0.1 mM EDTA, 0.01% bovine serum albumin, 0.005% Tween-20, and 10% DMSO at pH 7.4 for one hour. The reaction is quenched by the addition of 1.2 equivalents of EDTA (relative to divalent cation) in 25 μL of 1× Lance buffer (Perkin-Elmer). Streptavidin-APC (Perkin-Elmer) and Eu-labeled p-Tyr100 antibody (Perkin-Elmer) in 1× Lance buffer are added in a 25 μL volume to give final concentrations of 100 nM and 2.5 nM, respectively, and the mixture is allowed to incubate for one hour. The TR-FRET signal is measured on a multimode plate reader with an excitation wavelength (λEx) of 330 nm and detection wavelengths (λEm) of 615 and 665 nm. Activity is determined by the ratio of the fluorescence at 665 nm to that at 615 nm. For each compound, enzyme activity is measured at various concentrations of compound. Negative control reactions are performed in the absence of inhibitor in replicates of six, and two no-enzyme controls are used to determine baseline fluorescence levels. Inhibition constants, Ki(app), ware obtained using the program BatchKi (Kuzmic et al. (2000), Anal. Biochem. 286:45-50). IC50s are obtained according to the equation: IC50={Ki(app)/(1+[ATP]/Km^ATP)}+[E]total/2;
For all kinases, [ATP]=Km^ATP, [Btk]total=0.5 nM and [Lck]total=6 nM.

Chain of Btk (Q06187 whole entry): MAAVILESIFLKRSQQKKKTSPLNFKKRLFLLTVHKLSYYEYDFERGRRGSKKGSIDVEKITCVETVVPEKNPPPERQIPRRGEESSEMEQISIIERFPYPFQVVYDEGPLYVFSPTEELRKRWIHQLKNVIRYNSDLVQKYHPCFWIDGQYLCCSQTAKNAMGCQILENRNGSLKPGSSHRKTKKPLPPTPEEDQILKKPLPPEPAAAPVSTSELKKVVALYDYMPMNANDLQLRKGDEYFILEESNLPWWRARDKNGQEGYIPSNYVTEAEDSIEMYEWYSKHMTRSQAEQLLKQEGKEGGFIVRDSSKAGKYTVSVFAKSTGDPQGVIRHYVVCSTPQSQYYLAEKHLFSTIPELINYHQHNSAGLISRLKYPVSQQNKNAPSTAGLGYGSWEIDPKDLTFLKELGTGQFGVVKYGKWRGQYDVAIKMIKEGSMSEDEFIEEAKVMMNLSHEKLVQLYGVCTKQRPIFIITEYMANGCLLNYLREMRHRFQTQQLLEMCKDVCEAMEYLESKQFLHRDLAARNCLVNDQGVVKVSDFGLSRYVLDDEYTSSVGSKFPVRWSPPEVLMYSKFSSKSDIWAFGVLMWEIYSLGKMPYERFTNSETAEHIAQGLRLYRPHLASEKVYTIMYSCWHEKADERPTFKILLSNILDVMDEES

IC50 [nM] | Structure (SMILES)
100 to 1000 | CN(C/C=C/C(=O)N1CCC[C@@H](Nc2n[nH]c3nccc(Oc4ccc(C(=O)Nc5cccc(C(F)(F)F)c5)cc4)c23)C1)C1CC1 [compound 138, 4-[(3-{[(3R)-1-[(2E)-4-[cyclopropyl(methyl)amino]but-2-enoyl]piperidin-3-yl]amino}-1H-pyrazolo[3,4-b]pyridin-4-yl)oxy]-N-[3-(trifluoromethyl)phenyl]benzamide]
< 100 | C=CC(=O)N1CCC[C@@H](Nc2n[nH]c3nccc(Oc4ccc(C(=O)N(C)c5ncc(C)s5)cc4)c23)C1 [compound 211, N-methyl-N-(5-methyl-1,3-thiazol-2-yl)-4-[(3-{[(3R)-1-(prop-2-enoyl)piperidin-3-yl]amino}-1H-pyrazolo[3,4-b]pyridin-4-yl)oxy]benzamide]
100 to 1000 | CC#CC(=O)N1CCC[C@@H](Nc2n[nH]c3nccc(Oc4ccc(-c5nc6ncccc6o5)cc4)c23)C1 [compound 170]
> 10000 | Cc1nnc(NC(=O)c2ccc(Oc3ccnc4[nH]nc(N[C@@H]5CCCN(C(=O)/C=C/CN(C)C6CC6)C5)c34)cc2)s1 [compound 209, 4-[(3-{[(3R)-1-[(2E)-4-[cyclopropyl(methyl)amino]but-2-enoyl]piperidin-3-yl]amino}-1H-pyrazolo[3,4-b]pyridin-4-yl)oxy]-N-(5-methyl-1,3,4-thiadiazol-2-yl)benzamide]
100 to 1000 | CC#CC(=O)N1CCC[C@@H](Nc2n[nH]c3nccc(Oc4ccc(C(=O)N5CCCC(C(F)(F)F)C5)cc4)c23)C1 (stereo partly drawn) [compound 163]
< 100 | CN(C/C=C/C(=O)N1CCC[C@@H](Nc2n[nH]c3nccc(Oc4ccc(C(=O)Nc5cc(C(F)(F)F)ccn5)cc4)c23)C1)C1CC1 [compound 212, 4-[(3-{[(3R)-1-[(2E)-4-[cyclopropyl(methyl)amino]but-2-enoyl]piperidin-3-yl]amino}-1H-pyrazolo[3,4-b]pyridin-4-yl)oxy]-N-[4-(trifluoromethyl)pyridin-2-yl]benzamide]
< 100 | C=CC(=O)N1CCC[C@@H](Nc2n[nH]c3nccc(Oc4ccc(C(=O)Nc5ncc(C#N)s5)cc4)c23)C1 [compound 166]
1000 to 10000 | CC#CC(=O)N1CCC[C@@H](Nc2n[nH]c3nccc(Oc4ccc(C(=O)Nc5nnc(C)s5)cc4)c23)C1 [compound 180]
1000 to 10000 | Cc1c[nH]c(NC(=O)c2ccc(Oc3ccnc4[nH]nc(N[C@@H]5CCCN(C(=O)/C=C/CN(C)C6CC6)C5)c34)cc2)n1 [compound 157]
< 100 | C=CC(=O)N1CCC[C@@H](Nc2n[nH]c3nccc(Oc4ccc(C(=O)Nc5ncc(C(F)(F)F)s5)cc4)c23)C1 [compound 208, 4-[(3-{[(3R)-1-(prop-2-enoyl)piperidin-3-yl]amino}-1H-pyrazolo[3,4-b]pyridin-4-yl)oxy]-N-[5-(trifluoromethyl)-1,3-thiazol-2-yl]benzamide]
< 100 | C=CC(=O)N1CC[C@@H](Nc2n[nH]c3nccc(Oc4ccc(C(=O)Nc5cc(C(F)(F)F)ccn5)cc4)c23)C1 [compound 171]
< 100 | C=CC(=O)N1CCC[C@@H](Nc2n[nH]c3nccc(Oc4ccc(C(=O)N5CCCC(C(F)(F)F)C5)cc4)c23)C1 (stereo partly drawn) [compound 160]
< 100 | CC#CC(=O)N1CCC[C@@H](Nc2n[nH]c3nccc(Oc4ccc(C(=O)Nc5ncc(C#N)s5)cc4)c23)C1 [compound 168]
< 100 | CC#CC(=O)N1CC[C@@H](Nc2n[nH]c3nccc(Oc4ccc(C(=O)Nc5cc(C(F)(F)F)ccn5)cc4)c23)C1 [compound 174]
100 to 1000 | CC#CC(=O)N1CCC[C@@H](Nc2n[nH]c3nccc(Oc4ccc(C(=O)N(C)c5ncc(C)s5)cc4)c23)C1 [compound 210, 4-[(3-{[(3R)-1-(but-2-ynoyl)piperidin-3-yl]amino}-1H-pyrazolo[3,4-b]pyridin-4-yl)oxy]-N-methyl-N-(5-methyl-1,3-thiazol-2-yl)benzamide]

The next lines start with the molecule.

Structure (SMILES) | IC50 [nM]
CN(C/C=C/C(=O)N1CC[C@@H](N2C(=O)CN(c3ccc(Oc4ccccc4)cc3)c3ccnc4[nH]nc2c34)C1)C1CC1 [compound 238] | 100 to 1000
CC(C)NC(=O)Nc1ccc(Oc2ccnc3[nH]nc(N[C@@H]4CCCN(C(=O)/C=C/CN(C)C5CC5)C4)c23)cc1 [compound 147] | > 10000
c1ccc(Oc2ccc(Oc3ccnc4[nH]nc(NC[C@H]5CCNC5)c34)cc2)cc1 [compound 264, (S)-4-(4-phenoxyphenoxy)-N-(pyrrolidin-3-ylmethyl)-1H-pyrazolo[3,4-b]pyridin-3-amine] | 100 to 1000
Nc1ncnc2[nH]nc(-c3ccc(Oc4ccccc4)cc3)c12 [compound 121, 3-(4-phenoxyphenyl)-1H-pyrazolo[3,4-b]pyrimidin-4-amine] | < 100
C=CC(=O)N1CC[C@@H](N(C)c2n[nH]c3nccc(Oc4ccc(Cl)cc4)c23)C1 [compound 2, 1-[(3R)-3-{[4-(4-chlorophenoxy)-1H-pyrazolo[3,4-b]pyridin-3-yl](methyl)amino}pyrrolidin-1-yl]prop-2-en-1-one] | < 100
CN(C)C/C=C/C(=O)N1CC[C@@H](Nc2n[nH]c3nccc(Oc4ccc(Oc5ccccc5)cc4C(N)=O)c23)C1 [compound 41] | 100 to 1000
c1ccc(Oc2ccc(Oc3ccnc4[nH]nc(NC5CCNCC5)c34)cc2)cc1 [compound 261] | < 100
O=C(NC1CCCCC1)c1cccc(Oc2ccnc3[nH]nc(N[C@@H]4CCCNC4)c23)c1 [compound 254, (R)—N-cyclohexyl-3-(3-(piperidin-3-ylamino)-1H-pyrazolo[3,4-b]pyridin-4-yloxy)benzamide] | 100 to 1000
C=CC(=O)N1CC[C@H](CNc2n[nH]c3nccc(Oc4ccc(Oc5ccccc5)cc4)c23)C1 [compound 268, (R)-1-(3-((4-(4-phenoxyphenoxy)-1H-pyrazolo[3,4-b]pyridin-3-ylamino)methyl)pyrrolidin-1-yl)prop-2-en-1-one] | < 100
Cc1cc(NC(=O)c2cccc(Oc3ccnc4[nH]nc(N[C@@H]5CCCNC5)c34)c2)ccc1C(C)C [compound 258, (R)—N-(4-isopropyl-3-methylphenyl)-3-(3-(piperidin-3-ylamino)-1H-pyrazolo[3,4-b]pyridin-4-yloxy)benzamide] | 100 to 1000
C=CC(=O)N1CCC[C@@H](Nc2n[nH]c3nccc(Oc4ccc(-c5cc(C(F)(F)F)ccn5)cc4)c23)C1 [compound 155] | 100 to 1000
Cc1cc(NC(=O)c2cccc(Oc3ccnc4[nH]nc(N[C@H]5CCNC5)c34)c2)ccc1C(C)C [compound 260, (S)—N-(4-isopropyl-3-methylphenyl)-3-(3-(pyrrolidin-3-ylamino)-1H-pyrazolo[3,4-b]pyridin-4-yloxy)benzamide] | 100 to 1000
Cc1cnc(-c2cccc(Oc3ccnc4[nH]nc(N[C@@H]5CCCN(C(=O)/C=C/CN(C)C6CC6)C5)c34)c2)s1 [compound 150] | 1000 to 10000
c1ccc(Oc2ccc(Oc3ccnc4[nH]nc(NC[C@@H]5CCCNC5)c34)cc2)cc1 [compound 263, (R)-4-(4-phenoxyphenoxy)-N-(piperidin-3-ylmethyl)-1H-pyrazolo[3,4-b]pyridin-3-amine] | 100 to 1000
C=CC(=O)N1CCC[C@@H](CNc2n[nH]c3nccc(Oc4ccc(Oc5ccccc5)cc4)c23)C1 [compound 267, (S)-1-(3-((4-(4-phenoxyphenoxy)-1H-pyrazolo[3,4-b]pyridin-3-ylamino)methyl)piperidin-1-yl)prop-2-en-1-one] | < 100
CN(C/C=C/C(=O)N1CCC[C@@H](Nc2n[nH]c3nccc(Oc4ccc(NC(=O)Nc5cc(C(F)(F)F)ccn5)cc4)c23)C1)C1CC1 [compound 214, 3-{4-[(3-{[(3R)-1-[(2E)-4-[cyclopropyl(methyl)amino]but-2-enoyl]piperidin-3-yl]amino}-1H-pyrazolo[3,4-b]pyridin-4-yl)oxy]phenyl}-1-[4-(trifluoromethyl)pyridin-2-yl]urea] | 100 to 1000
CN(C/C=C/C(=O)N1CC[C@@H](N(C(=O)/C=C/CN(C)C2CC2)c2n[nH]c3ncnc(Oc4ccc(Oc5ccccc5)cc4)c23)C1)C1CC1 [compound 49] | 100 to 1000
CC(=O)N1CCN(C(=O)c2cccc(Oc3ccnc4[nH]nc(N[C@@H]5CCCNC5)c34)c2)CC1 [compound 257, (R)-1-(4-(3-(3-(piperidin-3-ylamino)-1H-pyrazolo[3,4-b]pyridin-4-yloxy)benzoyl)piperazin-1-yl)ethanone] | 100 to 1000
CN(C/C=C/C(=O)N1CC[C@@H](N2CC(=O)N(c3ccc(Oc4ccccc4)cc3)c3ccnc4[nH]nc2c34)C1)C1CC1 [compound 239] | < 100
C=CC(=O)N1CCC(Nc2n[nH]c3nccc(Oc4ccc(Oc5ccccc5)cc4)c23)CC1 [compound 265, 1-(4-(4-(4-phenoxyphenoxy)-1H-pyrazolo[3,4-b]pyridin-3-ylamino)piperidin-1-yl)prop-2-en-1-one] | < 100
O=C(c1cccc(Oc2ccnc3[nH]nc(N[C@@H]4CCCNC4)c23)c1)N1CCCCC1 [compound 255, (R)-piperidin-1-yl(3-(3-(piperidin-3-ylamino)-1H-pyrazolo[3,4-b]pyridin-4-yloxy)phenyl)methanone] | 100 to 1000
